Data taken from patent publication US20120213706A1, “RECONSTITUTED TUMOR MICROENVIRONMENT FOR ANTICANCER DRUG DEVELOPMENT” (UNIVERSITY OF MEDICINE AND DENTISTRY OF NEW JERSEY, priority 2009, published 2012).
Numbered stars: 1 amine (or outer) side, 2 acyl side, 3 side chain; on linkers, the order of the positions; unused ones are H or OH. Bridge positions count the residues as written; N and C are the ends. Square brackets hold non-standard residues; d marks the D form. Peptide text beside a SMILES is read from it. * marks the point of attachment. X1 = CC[C@H](C)[C@@H](N[*:1])[C@@H](O)CC(=O)O[C@H](C(=O)[C@H](C)C(=O)[*:2])C(C)C; NMeY = CN[C@@H](Cc1ccc(O)cc1)C(=O)O; dNMeL = CN[C@H](CC(C)C)C(=O)O; Pyruvoyl = CC(=O)C(=O)*

Assays:
Type in all cases: cell-based
Jak/Stat3 signaling = Jak/Stat3 signaling in tumor cells following treatment; conditions: following dehydrodidemnin B treatment
tumor cells = test: tumor cell demise following treatment; conditions: following dehydrodidemnin B treatment
Text: Accordingly, the instant invention is useful in drug screening assays for known and novel therapeutics targeting either the tumor cell or components of the tumor cell environment.

[1] = tested on: FSP positive tumor stroma; test: FSP positive tumor stroma after treatment; conditions: fibroblast surface protein (FSP) as marker for tumor stroma
[2] = tested on: tumor cells in the reconstituted tumor microenvironment; test: growth of tumor cells in the reconstituted tumor microenvironment; conditions: tumor cells established within the reconstituted tumor microenvironment
Protocol: The three cell system in Examples 1 and 2 is prepared and used to test standard chemotherapeutic agents for activity against cancer cell lines, such as the breast cancer cell lines MDAMB231 and MDAMB435 representing basal subtype and MCF7 and SKBR3 representing luminal subtype of breast cancer. Reconstitution is carried out in 96 well plates by co-culturing a fixed number of tumor cells and carcinoma-associated fibroblast-like cells plus TAMs either alone or admixed with differing amounts of cells representing cell types in tumor milieu. Tumor growth is monitored at these sites in accordance with the foregoing. As the tumor cells express luciferase, tumor growth is monitored even at early time points by bioluminescence imaging following injection of D-luciferin on a Kodak MM2000 Imager. Again, all the tumor cell lines tested in culture are tested in this assay.
The reconstituted system is used to identify synergistic combinations using a panel of standard chemotherapeutic agents and Jak/STAT3 inhibitors. The Chou Talalay combination index analysis is used and the data analyzed using Calcusyn software (Biosoft ver 3). […] Growth of tumors is monitored by bioluminescence imaging using a KODAK […] Imaging station as described earlier. […]

## CC[C@H](C)[C@H]1NC(=O)[C@@H](NC(=O)[C@@H](CC(C)C)N(C)C(=O)[C@@H]2CCCN2C(=O)C(C)=O)[C@@H](C)OC(=O)[C@H](Cc2ccc(OC)cc2)N(C)C(=O)[C@@H]2CCCN2C(=O)[C@H](CC(C)C)NC(=O)[C@@H](C)C(=O)[C@H](C(C)C)OC(=O)C[C@@H]1O [dehydrodidemnin B] (Pyruvoyl-P[dNMeL]T[X1]LP[NMeY](Me); ester 3-C)
Jak/Stat3 signaling
  Jak/Stat3 signaling in tumor cells: inhibition of Jak/Stat3 signaling
Tumor cells
  fate of tumor cells after inhibition of Jak/Stat3 signaling: led to the demise of tumor cells
[1]
  FSP positive tumor stroma: decreased FSP positive tumor stroma
[2]
  growth of tumor cells: can be inhibited
[2]; listed as Dehydrodidemnin B
  growth of tumor cells: inhibited
